Test results from patent publication US20070207225A1 (priority 2006, published 2007).

Experiments:
estrogen receptor ERβ = estrogen receptor ERβ (Homo sapiens, UniProt Q92731); conditions: competition assays, literature (Morito et al. 2001); cited from earlier work
estrogen receptor ERα = target: T1, estrogen receptor ERα (Homo sapiens, UniProt P03372); conditions: competition assays, literature (Morito et al. 2001); cited from earlier work
T1 sequence (P03372 1-595): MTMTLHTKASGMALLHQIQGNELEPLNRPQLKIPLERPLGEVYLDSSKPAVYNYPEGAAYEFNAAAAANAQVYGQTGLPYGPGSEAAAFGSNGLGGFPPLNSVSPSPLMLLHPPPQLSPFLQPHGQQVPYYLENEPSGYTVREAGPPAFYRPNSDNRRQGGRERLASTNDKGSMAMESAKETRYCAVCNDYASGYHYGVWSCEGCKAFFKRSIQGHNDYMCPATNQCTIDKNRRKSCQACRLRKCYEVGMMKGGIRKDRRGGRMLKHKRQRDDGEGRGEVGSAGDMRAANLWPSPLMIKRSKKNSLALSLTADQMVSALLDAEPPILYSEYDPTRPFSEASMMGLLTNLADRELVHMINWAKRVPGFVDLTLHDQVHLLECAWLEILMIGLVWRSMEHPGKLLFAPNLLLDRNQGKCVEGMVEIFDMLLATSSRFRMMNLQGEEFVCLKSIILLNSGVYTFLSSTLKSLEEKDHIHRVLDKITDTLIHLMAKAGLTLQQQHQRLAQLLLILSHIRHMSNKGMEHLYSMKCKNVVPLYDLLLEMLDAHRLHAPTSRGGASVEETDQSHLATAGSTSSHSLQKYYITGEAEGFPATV

fasting insulin = assay: Fasting insulin levels in postmenopausal women, six month treatment (ELISA); type: in vivo, human; conditions: for Fasting Insulin: n = 30, mean±SEM
Excerpt: (§1) Cardiovascular risk markers, according to various embodiments of the present invention, may comprise fasting insulin levels, fasting glucose levels, insulin resistance levels, osteoprotegerin levels, sex hormone-binding globulin levels, fibrinogen levels, estradiol levels and/or the like. […] See Crisafulli A., Altavilla D., Marini H., Bitto A., Cucinotta D., Frisina N., Corrado F., D'Anna R., Squadrito G., Adamo E., Marini R., Romeo A., Cancellieri F., Buemi M., Squadrito F., Menopause, The Journal of the North American Menopause Society, Vol. 12 No. 2 pp. 186-192.
(§2) Prior to this six month period, participants in the study were placed on a standard fat-reduced diet for four-weeks, which constituted a stabilization process.
To measure fasting insulin levels, insulin was measured by a commercially available ELISA kit according to the protocol of the manufacturer (DRG Diagnostik, Frauenberg Germany) (intraassay CV 4%; interassay CV 6%; lower detection limit, <1.5 μlU/ml).
(§3) Data was presented as mean±SEM, and the significance of the difference was assessed by analysis of variance, where a value of P less than 0.05 was considered statistically significant.

C-reactive protein = assay: Serum C-reactive protein in osteopenic women, six month study (immunochemiluminescent assay); type: in vivo, human
Excerpt: (§4) Inflammatory markers, according to various representative embodiments of the present invention, may comprise G-reactive proteins and/or homocysteine and/or the like. […] Prior to the six month period, participants in the study were placed on a standard fat-reduced diet for four-weeks, which constituted a stabilization process. The participants were then randomly assigned to receive either genistein, HRT or a placebo. Throughout the study period, samples were obtained while participants were fasting to minimize dietary effects. The samples were used to measure serum C-reactive protein and plasma homocysteine.
Serum C-reactive protein was measured using an immunochemiluminescent assay (Immulite DPC, Los Angeles, Calif., USA). Samples were stored after separation at −80° C. until assayed. Sensitivity was 0.07 μg/ml with intra- and interassay coefficient of variations of 3.1 and 5.7%, respectively. The reference interval was 0.20-5.10 μg/ml.
(§5) For statistical evaluation of the serum C-reactive protein and homocysteine, a two-way ANOVA with Bonferroni post-test was performed.

[1] = Plasma genistein levels in postmenopausal women, six month treatment (HPLC-UV); type: in vivo, human; conditions: for Plasma Genistein: baseline, prior to six month treatment, n = 30
Excerpt: as §1, §2
(§6) The assay was performed by using an HPLC method with UV detection.
as §3

osteoprotegerin = assay: Osteoprotegerin levels in postmenopausal women, six month treatment (ELISA); type: in vivo, human; conditions: for Osteoprotegerin: n = 30, mean±SEM
Excerpt: as §1, §2
To measure osteoprotegerin levels, a commercially available ELISA kit according to the protocol of the manufacturer (Immunodiagnostik Bensheim Germany) was utilized. This assay detects monomeric, dimeric, and ligand-bound forms of OPG (intra-assay CV 5%; interassay CV 6%; lower detection limit, 0.14 pmol/l).
as §3

[2] = test system: sex hormone-binding globulin; assay: Sex hormone-binding globulin levels in postmenopausal women, six month treatment (immunoradiometric assay); type: in vivo, human; conditions: for Sex Hormone Binding Globulin: n = 30, mean±SEM
Excerpt: as §1, §2
To measure sex hormone-binding globulin levels, an immunoradiometric assay (RADIM SPA, Rome, Italy) (intra-assay CV 4%; interassay CV 5%; lower detection limit, 2.5 nmol/L) was used.
as §3

fasting glucose = assay: Fasting glucose levels in postmenopausal women, six month treatment (enzymatic kit); type: in vivo, human; conditions: for Fasting Glucose: n = 30, mean±SEM
Excerpt: as §1, §2
To measure fasting glucose levels, serum glucose was measured by an enzymatic kit (BioSystemSA, Barcelona, Spain), (intra-assay CV 1%; interassay CV 1.8%; lower detection limit, 0.0126 mmol/L). Glucose in the sample produces, by means of the coupled reactions, a colored complex that can be spectrophotometrically measured.
as §3

fibrinogen = assay: Fibrinogen levels in postmenopausal women, six month treatment; type: in vivo, human; conditions: for Fibrinogen: n = 30, mean±SEM
Excerpt: as §1, §2
To measure fibrinogen levels, automated routine procedures were utilized.
as §3

homocysteine = assay: Plasma homocysteine in osteopenic women, six month study (immunochemiluminescent assay); type: in vivo, human
Excerpt: as §4, with “The participants were then randomly assigned to receive either genistein, HRT or a placebo.” left out
Plasma homocysteine was measured using an immunochemiluminescent assay (Immulite DPC, Los Angeles, Calif., USA). Samples were stored after separation at −80° C. until assayed. Homocysteine was assayed on plasma samples after treatment with S-adenosyl-L-homocysteine (SAH) hydrolase and dithiothreitol (DTT) solution. EDTA plasma was separated from the cells as soon as possible after collection. Samples were stored on ice between the time of sampling and centrifugation.
as §5

insulin resistance = assay: Insulin resistance (HOMA-IR) in postmenopausal women, six month treatment; type: in vivo, human; conditions: for Insulin resistance: HOMA-IR, n = 30, mean±SEM
Excerpt: as §1, §2
To measure insulin resistance levels, insulin was measured by a commercially available ELISA kit according to the protocol of the manufacturer (DRG Diagnostik, Frauenberg Germany) (intraassay CV 4%; interassay CV 6%; lower detection limit, <1.5 μlU/ml). Serum glucose was measured by an enzymatic kit (BioSystemSA, Barcelona, Spain), (intra-assay CV 1%; interassay CV 1.8%; lower detection limit, 0.0126 mmol/l). Glucose in the sample produces, by means of the coupled reactions, a colored complex that can be spectrophotometrically measured. Insulin resistance was calculated using the Homeostasis Model Assessment method (HOMA-IR=(insulin×glucose)/22.5).
as §3

estradiol = assay: Estradiol levels in postmenopausal women, six month treatment (HPLC-UV); type: in vivo, human; conditions: for Estradiol: baseline, prior to six month treatment, n = 30
Excerpt: as §1, §2, §6, §3

[3] = after six months, genistein 54 mg/d
[4] = baseline, prior to six month treatment
[5] = osteopenic women, after six months, genistein 54 mg/day or HRT, mean ± SE
[6] = osteopenic women, before treatment (baseline), n = 30, mean ± SE
[7] = after six months, genistein 54 mg/d, listed as genistein
[8] = baseline to six months, not taking uncertainties into account
[9] = baseline, prior to six month treatment, listed as genistein

Sequence of estrogen receptor ERβ (Q92731 whole entry): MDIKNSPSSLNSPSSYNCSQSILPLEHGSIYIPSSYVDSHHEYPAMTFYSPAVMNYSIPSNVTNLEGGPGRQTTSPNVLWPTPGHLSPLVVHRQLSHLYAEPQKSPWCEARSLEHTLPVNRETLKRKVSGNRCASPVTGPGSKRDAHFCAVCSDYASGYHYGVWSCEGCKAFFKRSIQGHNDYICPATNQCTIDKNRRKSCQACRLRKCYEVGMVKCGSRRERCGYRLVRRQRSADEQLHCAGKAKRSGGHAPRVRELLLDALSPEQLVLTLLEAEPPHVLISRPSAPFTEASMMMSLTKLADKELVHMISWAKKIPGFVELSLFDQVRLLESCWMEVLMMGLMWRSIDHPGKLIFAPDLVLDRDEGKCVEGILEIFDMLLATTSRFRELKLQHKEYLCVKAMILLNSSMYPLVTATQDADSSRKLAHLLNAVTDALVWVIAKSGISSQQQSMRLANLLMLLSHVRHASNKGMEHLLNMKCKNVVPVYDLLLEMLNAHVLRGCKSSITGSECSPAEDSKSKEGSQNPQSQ

O=C1c2c(O)cc(O)cc2OCC1c1ccc(O)cc1 (stereo not shown) [dihydrogenistein]
Binding to estrogen receptor ERβ (estrogen receptor ERβ): binding similar to the isoflavones, but lower than genistein | Binding to estrogen receptor ERα (estrogen receptor ERα): binding similar to the isoflavones, but lower than genistein

O=c1c(-c2ccc(O)cc2)coc2cc(O)cc(O)c12 [Genistein, 4′,5,7-Trihydroxyisoflavone 5,7-Dihydroxy-3-(4-hydroxyphenyl)-4H-1-benzopyran-4-one]
Decrease of fasting insulin levels (fasting insulin; after six months, FIG. 6): −12±3.33% | Fasting Insulin (fasting insulin; [3]): 6.24 ± 0.45 | Fasting Insulin (fasting insulin; [4]): 7 ± 0.55 | C-reactive protein level, change from baseline (C-reactive protein; after 6 months of treatment): no significant differences at the end of treatment from baseline | Serum C-reactive protein (CRP), After (C-reactive protein; [5]): 2.13 ± 0.45 mg/L | Serum C-reactive protein (CRP), Before (C-reactive protein; [6]): 1.73 ± 0.31 mg/L | Increase in plasma genistein levels after 6 months of treatment ([1]; 6 months vs baseline): approximately 60% | Plasma Genistein [1]: 0.07 ± 0.004 µmol/L | Plasma Genistein ([1]; listed as genistein): approximately 0.75 μmol/l | concentration at 6 months ([1]; female, human, in vivo, 54 mg/d): ~1200 nM | Decrease of osteoprotegerin levels (osteoprotegerin; after six months, FIG. 8): −2±0.3% | Osteoprotegerin (osteoprotegerin; [3]): 4.4 ± 0.11 | Osteoprotegerin (osteoprotegerin; [4]): 4.67 ± 0.13 | Sex Hormone Binding Globulin [2, 3]: 63 ± 3.83 nmol/L | Sex Hormone Binding Globulin [2, 7]: 63 ± 3.83 nmol/L | Decrease of sex hormone binding globulin levels [2, 8]: ~11.3% | Sex Hormone Binding Globulin [2, 4]: 71 ± 4.2 nmol/L | Sex Hormone Binding Globulin [2, 9]: 71 ± 4.2 nmol/L | Decrease in levels of fasting glucose (fasting glucose; after six months of treatment, P<0.001 as compared to placebo, FIG. 5): 8.7±2.3% | Fasting Glucose (fasting glucose; [3]): 4.3 ± 0.10 | Fasting Glucose (fasting glucose; [4]): 4.74 ± 0.11 | Fibrinogen (fibrinogen; [3]): 3.18 ± 0.12 g/L | Fibrinogen (fibrinogen; [7]): 3.18 ± 0.12 g/L | Decrease of fibrinogen levels (fibrinogen; [8]): ~11.7% | Fibrinogen (fibrinogen; [4]): 3.6 ± 0.12 g/L | Fibrinogen (fibrinogen; [9]): 3.6 ± 0.12 g/L | Plasma homocysteine mean value, change from baseline (homocysteine; after six months, difference not statistically significant (P>0.05)): slightly decreased from baseline | Plasma homocysteine, After (homocysteine; [5]): 10.72 ± 0.46 µmol/L | Plasma homocysteine, Before (homocysteine; [6]): 11.36 ± 0.39 µmol/L | Decrease of insulin resistance levels (insulin resistance; after six months, FIG. 7): −14±5.8% | Insulin resistance (insulin resistance; [3]): 1.18 ± 0.08 | Insulin resistance (insulin resistance; [4]): 1.47 ± 0.12 | Estradiol levels, six month readings (estradiol; after 6 months, genistein 54 mg/d, FIG. 4A): approximately 78 pmol/L | Estradiol (estradiol): 73 ± 2.19 pmol/L | Estradiol (estradiol; listed as genistein): approximately 74 pmol/L | Effect on estradiol levels (estradiol; given over a six month period, FIG. 4A): does not significantly elevate estradiol levels

Oc1ccc([C@H]2COc3cc(O)ccc3C2)cc1 [equol]
Binding to estrogen receptor ERβ (estrogen receptor ERβ): binding similar to the isoflavones, but lower than genistein | Binding to estrogen receptor ERα (estrogen receptor ERα): binding similar to the isoflavones, but lower than genistein
